Read-outs that look alike come from different tables or passages of the source.
Molecular target: T1, F508delCFTR (Homo sapiens, UniProt P13569, DEL508-508)
T1 construct: expressed in transfected cells; host or cells: CFBE41o- (human lung derived epithelial cell line), doxycycline-inducible expression
Assay: Cell Surface Expression-Horse Radish Peroxidase (CSE-HRP) assay
Assay type: cell-based
Details: CFBE41o-F508delCFTR-HRP cells; for Maximum % activity (with co-corrector): with co-corrector (2 μM); for Maximum % activity (with co-corrector) / Maximum % activity (without co-corrector): normalized to on-plate positive control, highest concentration 20 μM
Outline: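 CFBE41o- cells expressed F508delCFTR with HRP in the fourth exofacial loop, induced by 0.5 μg/mL doxycycline for 72 h at 37 °C. Compounds alone or with 2 μM co-corrector ran 18–24 h at 33 °C, 8-point 3-fold from 20 μM. Washed-cell luminol luminescence was normalized to DMSO and positive control, fitted sigmoidally for EC50 (three plates).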

[1] = test compound without co-corrector, 18-24 hours at 33° C., read-out: EC50 (without co-corrector)
[2] = with co-corrector (2 μM of 3-[(2R,4R)-4-({[1-(2,2-difluoro-1,3-benzodioxol-5-yl)cyclopropyl]carbonyl}amino)-7-methoxy-3,4-dihydro-2H-chromen-2-yl]benzoic acid), read-out: EC50 (with co-corrector)

T1 sequence (P13569 with tags, fused parts or gaps DEL508-508): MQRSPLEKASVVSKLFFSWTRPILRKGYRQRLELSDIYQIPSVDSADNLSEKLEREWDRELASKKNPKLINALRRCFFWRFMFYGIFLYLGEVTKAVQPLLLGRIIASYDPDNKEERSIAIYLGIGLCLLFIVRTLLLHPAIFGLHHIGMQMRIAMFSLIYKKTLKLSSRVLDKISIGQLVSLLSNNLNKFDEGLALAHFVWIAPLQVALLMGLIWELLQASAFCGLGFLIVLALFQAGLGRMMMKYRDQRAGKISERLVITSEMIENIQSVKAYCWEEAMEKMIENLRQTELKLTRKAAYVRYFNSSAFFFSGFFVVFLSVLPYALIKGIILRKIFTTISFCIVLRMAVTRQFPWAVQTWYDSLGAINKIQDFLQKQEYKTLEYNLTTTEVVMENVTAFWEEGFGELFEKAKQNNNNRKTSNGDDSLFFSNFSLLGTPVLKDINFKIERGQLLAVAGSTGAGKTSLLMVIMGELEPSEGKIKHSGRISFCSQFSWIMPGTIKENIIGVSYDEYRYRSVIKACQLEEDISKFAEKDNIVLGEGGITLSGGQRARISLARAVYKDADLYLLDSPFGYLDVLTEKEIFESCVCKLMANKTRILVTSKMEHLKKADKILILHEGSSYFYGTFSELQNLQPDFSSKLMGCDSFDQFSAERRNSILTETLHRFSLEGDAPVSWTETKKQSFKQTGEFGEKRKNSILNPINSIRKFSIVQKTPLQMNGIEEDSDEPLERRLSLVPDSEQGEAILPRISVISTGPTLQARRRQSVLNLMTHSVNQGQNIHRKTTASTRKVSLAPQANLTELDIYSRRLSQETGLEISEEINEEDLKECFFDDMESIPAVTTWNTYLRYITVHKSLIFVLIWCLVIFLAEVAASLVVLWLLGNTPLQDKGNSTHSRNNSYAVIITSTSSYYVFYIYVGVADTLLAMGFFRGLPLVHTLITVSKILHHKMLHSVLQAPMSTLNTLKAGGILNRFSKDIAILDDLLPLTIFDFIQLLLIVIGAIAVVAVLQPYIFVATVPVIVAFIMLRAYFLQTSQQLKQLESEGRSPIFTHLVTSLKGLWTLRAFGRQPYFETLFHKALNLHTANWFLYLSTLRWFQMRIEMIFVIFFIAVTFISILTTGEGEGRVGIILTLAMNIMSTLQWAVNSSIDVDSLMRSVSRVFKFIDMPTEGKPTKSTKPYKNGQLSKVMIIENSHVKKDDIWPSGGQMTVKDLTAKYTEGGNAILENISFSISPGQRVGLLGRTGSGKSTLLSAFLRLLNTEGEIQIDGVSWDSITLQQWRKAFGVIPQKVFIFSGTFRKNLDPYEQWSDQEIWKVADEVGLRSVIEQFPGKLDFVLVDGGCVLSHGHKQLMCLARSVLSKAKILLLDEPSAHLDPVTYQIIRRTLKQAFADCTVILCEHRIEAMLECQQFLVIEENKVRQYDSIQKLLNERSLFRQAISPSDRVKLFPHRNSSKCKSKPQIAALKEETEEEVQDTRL

Question: Which EC50 [1] does the source give for `CC(C)Oc1ncccc1[C@H]1[C@@H](OCc2cc3cc(C4CCC4)ccc3o2)[C@H](C(C)(C)C)[C@@H](C(=O)O)N1C(=O)[C@@H]1CCCCO1` [Example 296, (2S,3R,4S,5S)-3-tert-butyl-4-[(5-cyclobutyl-1-benzofuran-2-yl)methoxy]-1-[(2S)-oxane-2-carbonyl]-5-{2-[(propan-2-yl)oxy]pyridin-3-yl}pyrrolidine-2-carboxylic acid] here?
Answer: Its EC50 is 1000 to 10000 nM.

Question: What about the EC50 [2] of the same compound?
Answer: Its EC50 is less than 1000 nM.

Question: And the “Maximum % activity (with co-corrector)” value?
Answer: Its value is “++ (≥150 and <350)”.

Question: What about the “Maximum % activity (without co-corrector)” value of the same compound?
Answer: The value was “+ (<100)”.

Question: “(2S,3R,4S,5S)-4-[(5-bromo-2-methoxypyridin-3-yl)methoxy]-3-tert-butyl-5-(2-methylphenyl)-1-[(2S)-oxane-2-carbonyl]pyrrolidine-2-carboxylic acid [Example 186]” was tested. Which EC50 [1] did it give?
Answer: Its EC50 is 1000 to 10000 nM.

Question: What about the EC50 [2] of the same compound?
Answer: The EC50 was less than 1000 nM.

Question: And the “Maximum % activity (with co-corrector)” value?
Answer: Its value is “+++ (≥350)”.

Question: And the “Maximum % activity (without co-corrector)” value?
Answer: Its value is “+++ (≥200)”.

Question: How did the EC50 [1] turn out when “(2S,3R,4S,5S)-5-(2-bromophenyl)-3-tert-butyl-4-[(5-cyclobutyl-2-methoxypyridin-3-yl)methoxy]-1-[(2S)-oxane-2-carbonyl]pyrrolidine-2-carboxylic acid [Example 177]” was run?
Answer: The EC50 was 1000 to 10000 nM.

Question: What about the EC50 [2] of the same compound?
Answer: The EC50 was 1000 to 10000 nM.

Question: What about the “Maximum % activity (with co-corrector)” value of the same compound?
Answer: The value was “+++ (≥350)”.

Question: What about the “Maximum % activity (without co-corrector)” value of the same compound?
Answer: Its value is “++ (≥100 and <200)”.

Source: patent US10399940B2, “Substituted pyrrolidines and methods of use” (AbbVie S.à.r.l., priority 2016, dated 2019)
